This assay deals with P388 leukemia ip, CD2F1 mice, survival T/C. Description: NCI In Vivo Anticancer Drug Screen. Data for tumor model P388 Leukemia (intraperitoneal) in CD2F1 (CDF1) mice. The conditions noted are these: endpoint: median survival time, higher = longer survival. A digest of the protocol: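 Mice carrying the transplanted tumor received test compound or vehicle. Survival was recorded in each group, and the value is the treated-group measurement divided by that of the vehicle-treated control group.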

Setting [1] is: dose: 12.5 mg/kg/injection, schedule: Q01DX009 (ip), vehicle: saline.
Where [2] appears, read: dose: 25.0 mg/kg/injection, schedule: Q01DX009 (ip), vehicle: saline.
[3] abbreviates: dose: 50.0 mg/kg/injection, schedule: Q01DX009 (ip), vehicle: saline.
[4] abbreviates: dose: 100.0 mg/kg/injection, schedule: Q01DX009 (ip), vehicle: saline with Tween-80.
Where [5] appears, read: dose: 200.0 mg/kg/injection, schedule: Q01DX009 (ip), vehicle: saline with Tween-80.
Where [6] appears, read: dose: 60.0 mg/kg/injection, schedule: Q01DX005 (ip), vehicle: saline with Tween-80.
The mark [7] stands for this setting: dose: 120.0 mg/kg/injection, schedule: Q01DX005 (ip), vehicle: saline with Tween-80.
The mark [8] stands for this setting: dose: 240.0 mg/kg/injection, schedule: Q01DX005 (ip), vehicle: saline with Tween-80.
[9] abbreviates: dose: 100.0 mg/kg/injection, schedule: Q01DX001 (ip), vehicle: saline with Tween-80.
The mark [10] stands for this setting: dose: 200.0 mg/kg/injection, schedule: Q01DX001 (ip), vehicle: saline with Tween-80.
The mark [11] stands for this setting: dose: 400.0 mg/kg/injection, schedule: Q01DX001 (ip), vehicle: saline with Tween-80.

Several values for one entry are separate records, joined by “and”; a condition that tells them apart may be missing. Identical values can stand only once. Inconclusive results and toxic doses are left out.

Turning to `Nc1nc2c(ncn2C2OC(CO)C(O)C2O)c(=O)[nH]1.Nc1nc2c(ncn2C2OC(CO)C(O)C2O)c(=O)[nH]1.[NH2-].[NH2-].[Pt+2]` (stereo not drawn), the T/C was 101 % of control (dose: 6.25 mg/kg/injection, schedule: Q01DX009 (ip), vehicle: saline); 100 % of control and 108 % of control under setting [1]; 100 % of control and 107 % of control under setting [2]; 100 % of control and 113 % of control and 107 % of control under setting [3]; 175 % of control (dose: 50.0 mg/kg/injection, schedule: Q01DX009 (ip), vehicle: water); 100 % of control (dose: 50.0 mg/kg/injection, schedule: Q04DX003 (ip), vehicle: saline). Further, the T/C is, setting by setting: (dose: 100.0 mg/kg/injection, schedule: Q01DX009 (ip), vehicle: saline) 112 % of control and 121 % of control and 116 % of control; (dose: 100.0 mg/kg/injection, schedule: Q01DX009 (ip), vehicle: water) 174 % of control; (dose: 100.0 mg/kg/injection, schedule: Q04DX003 (ip), vehicle: saline) 120 % of control; (dose: 200.0 mg/kg/injection, schedule: Q01DX009 (ip), vehicle: saline) 163 % of control and 177 % of control; (dose: 200.0 mg/kg/injection, schedule: Q04DX003 (ip), vehicle: saline) 110 % of control; (dose: 400.0 mg/kg/injection, schedule: Q01DX009 (ip), vehicle: saline) 224 % of control and 227 % of control.

Take `C/C(=C\c1c[nH]c2ccccc12)[N+](=O)[O-]`: the T/C is 109 % of control under setting [4]; 104 % of control under setting [5]; 124 % of control (dose: 400.0 mg/kg/injection, schedule: Q01DX009 (ip), vehicle: saline with Tween-80).

For `O=P(OCCN(CCOP(=O)(Oc1ccccc1)Oc1ccccc1)c1ccc2ccccc2c1)(Oc1ccccc1)Oc1ccccc1`, the T/C is 94 % of control (dose: 50.0 mg/kg/injection, schedule: Q01DX009 (ip), vehicle: saline with Tween-80); 86 % of control under setting [4]; 96 % of control under setting [5].

As for `OC(CCCCOc1ccccc1)(c1ccccc1)c1ccccc1`, the T/C is, setting by setting: under setting [6], 100 % of control; under setting [7], 101 % of control; under setting [8], 101 % of control.

As for `CC1CN=C(c2cccc(NC(=O)NCCCCNC(=O)Nc3cccc(C4=NCC(C)N4)c3)c2)N1` (stereo not drawn), the T/C is 100 % of control (dose: 6.25 mg/kg/injection, schedule: Q01DX005 (ip), vehicle: saline with Tween-80) and 104 % of control (dose: 12.5 mg/kg/injection, schedule: Q01DX005 (ip), vehicle: saline with Tween-80).

Consider `CNC(=O)OCc1c(COC(=O)NC)c2n(c1C)-c1ccccc1CCC2`, for which the T/C is, setting by setting: (dose: 2.5 mg/kg/injection, schedule: Q01DX005 (ip), vehicle: Klucel (hydroxypropylcellulose) (HPC)) 154 % of control; (dose: 10.0 mg/kg/injection, schedule: Q01DX005 (ip), vehicle: Klucel (hydroxypropylcellulose) (HPC)) 152 % of control.

As to `COc1cccc([B-]23OCC[N+]2(CNC(=O)C2=C(O)C4(O)C(=O)C5=C(O)c6c(O)cccc6C(C)(O)C5CC4C(N(C)C)C2=O)CCO3)c1` (stereo not drawn), the T/C by setting is: (dose: 50.0 mg/kg/injection, schedule: Q01DX005 (ip), vehicle: Klucel (hydroxypropylcellulose) (HPC)) 110 % of control; (dose: 100.0 mg/kg/injection, schedule: Q01DX005 (ip), vehicle: Klucel (hydroxypropylcellulose) (HPC)) 105 % of control; (dose: 200.0 mg/kg/injection, schedule: Q01DX005 (ip), vehicle: Klucel (hydroxypropylcellulose) (HPC)) 115 % of control.

For `CCCCCCCCCCCCCCOCC(O)CN(CCO)CCO` (stereo not drawn), the T/C reads like this: under setting [1], 105 % of control; under setting [2], 105 % of control; under setting [3], 88 % of control and 98 % of control.

With `O=Cc1ccc(COCCO)o1`, the T/C under setting [6] is 105 % of control, the T/C under setting [7] was 102 % of control and the T/C under setting [8] was 102 % of control.

Regarding `C/C=C1/CN2C3CC1C1(C(=O)OC)C(OC(C)=O)[C@]4(C[C@H]21)c1ccccc1N(C)C34` (stereo partly drawn), the T/C reads like this: (dose: 3.0 mg/kg/injection, schedule: Q01DX005 (ip), vehicle: Klucel (hydroxypropylcellulose) (HPC)) 94 % of control; (dose: 6.0 mg/kg/injection, schedule: Q01DX005 (ip), vehicle: Klucel (hydroxypropylcellulose) (HPC)) 100 % of control; (dose: 12.0 mg/kg/injection, schedule: Q01DX005 (ip), vehicle: Klucel (hydroxypropylcellulose) (HPC)) 98 % of control; (dose: 24.0 mg/kg/injection, schedule: Q01DX005 (ip), vehicle: Klucel (hydroxypropylcellulose) (HPC)) 106 % of control.

Consider `CCN1CCCC(OC(=O)c2cccc3[nH]ccc23)C1` (stereo not drawn), for which the T/C (dose: 3.13 mg/kg/injection, schedule: Q01DX009 (ip), vehicle: saline with Tween-80) is 118 % of control; the T/C (dose: 6.25 mg/kg/injection, schedule: Q01DX009 (ip), vehicle: saline with Tween-80) was 103 % of control; the T/C (dose: 12.5 mg/kg/injection, schedule: Q01DX009 (ip), vehicle: saline with Tween-80) was 98 % of control; the T/C (dose: 25.0 mg/kg/injection, schedule: Q01DX009 (ip), vehicle: saline with Tween-80) was 99 % of control.

Turning to `Cc1ccc(OP(=O)(Oc2ccc(C)cc2)Oc2ccc(C)cc2)cc1.Cc1ccc(OP(=O)(Oc2ccc(C)cc2)Oc2ccc(C)cc2)cc1.Cc1ccc(OP(=O)(Oc2ccc(C)cc2)Oc2ccc(C)cc2)cc1.Cc1ccc(OP(=O)(Oc2ccc(C)cc2)Oc2ccc(C)cc2)cc1.[Cr+3].[O-][Cl+3]([O-])([O-])O`, the T/C runs as follows: (dose: 100.0 mg/kg/injection, schedule: Q01DX001 (ip), vehicle: Klucel (hydroxypropylcellulose) (HPC)) 100 % of control; (dose: 200.0 mg/kg/injection, schedule: Q01DX001 (ip), vehicle: Klucel (hydroxypropylcellulose) (HPC)) 96 % of control; (dose: 400.0 mg/kg/injection, schedule: Q01DX001 (ip), vehicle: Klucel (hydroxypropylcellulose) (HPC)) 89 % of control.

Regarding `CCOC(=O)NCCCl`, the T/C (dose: 5.0 mg/kg/injection, schedule: Q01DX009 (ip), vehicle: saline with Tween-80) is 104 % of control; the T/C (dose: 10.0 mg/kg/injection, schedule: Q01DX009 (ip), vehicle: saline with Tween-80) was 107 % of control; the T/C (dose: 20.0 mg/kg/injection, schedule: Q01DX009 (ip), vehicle: saline with Tween-80) is 101 % of control; the T/C (dose: 50.0 mg/kg/injection, schedule: Q01DX008 (ip), vehicle: saline) is 95 % of control; the T/C (dose: 100.0 mg/kg/injection, schedule: Q01DX008 (ip), vehicle: saline) was 98 % of control; the T/C (dose: 200.0 mg/kg/injection, schedule: Q01DX008 (ip), vehicle: saline) was 107 % of control. For the setting “dose: 400.0 mg/kg/injection, schedule: Q01DX008 (ip), vehicle: saline”, the T/C is 101 % of control.

In the case of `Nc1ccc(NS(=O)(=O)c2cccs2)c(O)c1`, the T/C (dose: 50.0 mg/kg/injection, schedule: Q01DX009 (ip), vehicle: Klucel (hydroxypropylcellulose) (HPC)) was 97 % of control; the T/C (dose: 100.0 mg/kg/injection, schedule: Q01DX009 (ip), vehicle: Klucel (hydroxypropylcellulose) (HPC)) was 94 % of control; the T/C (dose: 200.0 mg/kg/injection, schedule: Q01DX009 (ip), vehicle: Klucel (hydroxypropylcellulose) (HPC)) was 105 % of control.

For the molecule `CC(=O)OC1COC(Nc2cc(=O)n(C)c(=O)[nH]2)C(OC(C)=O)C1OC(C)=O` (stereo not drawn), the T/C is, setting by setting: under setting [9], 101 % of control; under setting [10], 100 % of control; under setting [11], 95 % of control.

In the case of `C=CCC1=C(C2CO2)C(=O)c2ccccc2C1=O` (stereo not drawn), the T/C (dose: 6.25 mg/kg/injection, schedule: Q01DX005 (ip), vehicle: Klucel (hydroxypropylcellulose) (HPC)) is 99 % of control and the T/C (dose: 12.5 mg/kg/injection, schedule: Q01DX005 (ip), vehicle: Klucel (hydroxypropylcellulose) (HPC)) was 99 % of control.

For `Cc1nc2sccn2c1C(N)=O`, the T/C (dose: 60.0 mg/kg/injection, schedule: Q01DX005 (ip), vehicle: Klucel (hydroxypropylcellulose) (HPC)) is 94 % of control; the T/C under setting [9] is 103 % of control; the T/C (dose: 120.0 mg/kg/injection, schedule: Q01DX005 (ip), vehicle: Klucel (hydroxypropylcellulose) (HPC)) is 97 % of control; the T/C under setting [10] is 114 % of control; the T/C under setting [11] was 103 % of control.

With `Cc1cccc(Nc2c3ccccc3nc3ccccc23)c1`, the T/C runs as follows: (dose: 25.0 mg/kg/injection, schedule: Q01DX001 (ip), vehicle: saline with Tween-80) 95 % of control; (dose: 50.0 mg/kg/injection, schedule: Q01DX001 (ip), vehicle: saline with Tween-80) 100 % of control; under setting [9], 95 % of control.

Values taken from PubChem BioAssay AID330 (DTP/NCI, 2004).
